What was measured:
[1] = target: human kinase Mps-1 (Homo sapiens (Human), UniProt P33981); assay: Mps-1 kinase assay (TR-FRET); format: biochemical; conditions: 10 μM ATP; read-out: Mps1 avg (IC50 [mol/l])
Summary of the method: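 GST-tagged full-length human Mps-1 (~0.5 nM) preincubated 15 min with compound, then reacted 60 min at 22 °C with 10 μM ATP and 1 μM biotinylated peptide in Hepes pH 7.7 buffer. Phosphoproduct detected by TR-FRET (Eu anti-phospho-Ser/Thr, SA-XLent); 665/620 ratio normalised to no-inhibitor and no-enzyme controls.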

[2] = target: human Bub1 (Homo sapiens (Human), UniProt O43683); assay: Bub1 kinase assay (TR-FRET); format: biochemical; conditions: 10 μM ATP; read-out: Bub1 avg (IC50 [mol/l])
Summary of the method: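 His6-tagged human Bub1 catalytic domain (aa 704-1085, insect-cell expressed, ~200 ng/ml) preincubated with compound 15 min, then reacted 60 min at 22 °C with 10 μM ATP and 1 μM biotinylated peptide (final) in pH 7.5 Tris buffer. Phosphopeptide detected by TR-FRET 665/620 ratio, normalised to no-inhibitor and no-enzyme controls.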

Sequence of human Bub1 (O43683 704-1085): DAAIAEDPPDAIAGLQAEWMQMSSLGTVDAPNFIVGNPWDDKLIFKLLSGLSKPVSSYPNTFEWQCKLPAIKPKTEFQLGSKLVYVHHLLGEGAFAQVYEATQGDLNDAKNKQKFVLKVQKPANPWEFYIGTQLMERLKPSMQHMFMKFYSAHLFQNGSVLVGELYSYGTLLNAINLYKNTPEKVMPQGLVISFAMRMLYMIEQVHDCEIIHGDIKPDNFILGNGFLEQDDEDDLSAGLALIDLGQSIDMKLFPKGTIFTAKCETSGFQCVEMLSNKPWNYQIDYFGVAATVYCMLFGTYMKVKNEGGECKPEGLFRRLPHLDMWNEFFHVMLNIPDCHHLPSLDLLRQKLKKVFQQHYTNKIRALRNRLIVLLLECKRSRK
Sequence of human kinase Mps-1 (P33981 whole entry): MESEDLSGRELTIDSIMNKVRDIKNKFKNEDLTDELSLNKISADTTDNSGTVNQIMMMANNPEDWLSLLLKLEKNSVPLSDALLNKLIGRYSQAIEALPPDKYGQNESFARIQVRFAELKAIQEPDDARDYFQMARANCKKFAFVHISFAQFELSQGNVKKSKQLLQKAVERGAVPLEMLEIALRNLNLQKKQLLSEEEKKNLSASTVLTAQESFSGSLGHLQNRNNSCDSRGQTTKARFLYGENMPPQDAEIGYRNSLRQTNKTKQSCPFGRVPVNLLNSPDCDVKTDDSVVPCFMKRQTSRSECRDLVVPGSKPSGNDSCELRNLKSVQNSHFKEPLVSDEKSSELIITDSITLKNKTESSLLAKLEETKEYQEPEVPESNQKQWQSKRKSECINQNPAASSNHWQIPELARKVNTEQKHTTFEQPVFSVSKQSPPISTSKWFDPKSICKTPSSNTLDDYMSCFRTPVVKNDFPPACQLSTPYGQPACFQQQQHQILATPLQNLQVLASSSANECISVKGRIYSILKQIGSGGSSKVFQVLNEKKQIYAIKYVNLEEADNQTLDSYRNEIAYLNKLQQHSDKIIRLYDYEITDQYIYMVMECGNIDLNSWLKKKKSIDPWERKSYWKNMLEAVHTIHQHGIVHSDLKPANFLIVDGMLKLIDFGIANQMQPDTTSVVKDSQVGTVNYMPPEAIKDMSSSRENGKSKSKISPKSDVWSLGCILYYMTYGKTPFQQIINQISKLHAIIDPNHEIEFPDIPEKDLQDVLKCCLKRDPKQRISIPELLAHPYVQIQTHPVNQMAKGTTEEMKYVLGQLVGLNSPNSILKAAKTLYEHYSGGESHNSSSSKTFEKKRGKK

IC50 [1] | IC50 [2] | SMILES
> 20 µM | > 20 µM | COc1ccc(NC(=O)c2c(C)nsc2Nc2ncc(C(=O)N3CCOCC3)s2)cc1F [Example 93, N-(3-Fluoro-4-methoxyphenyl)-3-methyl-5-{[5-(morpholin-4-ylcarbonyl)-1,3-thiazol-2-yl]amino}-1,2-thiazole-4-carboxamide]
> 20 µM | > 20 µM | CCOC(=O)c1cnc(Nc2snc(C)c2C(=O)Nc2ccccc2CC)s1 [Example 92, Ethyl 2-({4-[(2-ethylphenyl)-carbamoyl]-3-methyl-1,2-thiazol-5-yl}amino)-1,3-thiazole-5-carboxylate]
> 20 µM | > 20 µM | CCc1cnc(Nc2snc(C)c2C(=O)Nc2ccc(F)c(F)c2)cn1 [Example 79, N-(3,4-Difluorophenyl)-5-[(5-ethylpyrazin-2-yl)amino]-3-methyl-1,2-thiazole-4-carboxamide]
> 20 µM | > 20 µM | Cc1nsc(Nc2cnc(C(F)(F)F)cn2)c1C(=O)Nc1ccc(F)c(F)c1 [Example 81, N-(3,4-Difluorophenyl)-3-methyl-5-{[5-(trifluoromethyl)pyrazin-2-yl]amino}-1,2-thiazole-4-carboxamide]
16 µM | > 20 µM | CCNc1cncc(Nc2snc(C)c2C(=O)Nc2ccc(F)c(F)c2)n1 [Example 78, N-(3,4-Difluorophenyl)-5-{[6-(ethylamino)pyrazin-2-yl]amino}-3-methyl-1,2-thiazole-4-carboxamide]
> 20 µM | > 20 µM | CCc1cncc(Nc2snc(C)c2C(=O)Nc2ccc(F)c(F)c2)n1 [Example 76, N-(3,4-Difluorophenyl)-5-[(6-ethylpyrazin-2-yl)amino]-3-methyl-1,2-thiazole-4-carboxamide]
> 20 µM | > 20 µM | COc1cncc(Nc2snc(C)c2C(=O)Nc2ccc(F)c(F)c2)n1 [Example 72, N-(3,4-Difluorophenyl)-5-[(6-methoxypyrazin-2-yl)amino]-3-methyl-1,2-thiazole-4-carboxamide]
> 20 µM | > 20 µM | Cc1nsc(Nc2cncc(-n3cccn3)n2)c1C(=O)Nc1ccc(Cl)c(F)c1 [Example 67, N-(4-Chloro-3-fluorophenyl)-3-methyl-5-{[6-(1H-pyrazol-1-yl)pyrazin-2-yl]amino}-1,2-thiazole-4-carboxamide]
> 20 µM | 15 µM | Cc1nsc(Nc2cncc(C(F)(F)F)n2)c1C(=O)Nc1ccc(F)c(F)c1 [Example 82, N-(3,4-Difluorophenyl)-3-methyl-5-{[6-(trifluoromethyl)pyrazin-2-yl]amino}-1,2-thiazole-4-carboxamide]
> 20 µM | > 20 µM | Cc1nsc(Nc2cnc(Br)cn2)c1C(=O)Nc1ccc(F)c(F)c1 [Example 77, 5-[(5-Bromopyrazin-2-yl)amino]-N-(3,4-difluorophenyl)-3-methyl-1,2-thiazole-4-carboxamide]
> 20 µM | > 20 µM | Cc1nsc(Nc2cnc(Cl)cn2)c1C(=O)Nc1ccc(F)c(F)c1 [Example 74, 5-[(5-Chloropyrazin-2-yl)amino]-N-(3,4-difluorophenyl)-3-methyl-1,2-thiazole-4-carboxamide]
– | > 20 µM | CCc1ccccc1NC(=O)c1c(C)nsc1Nc1nc(C(=O)OC)co1 [Example 91, Methyl 2-({4-[(2-ethylphenyl)carbamoyl]-3-methyl-1,2-thiazol-5-yl}amino)-1,3-oxazole-4-carboxylate]
> 20 µM | > 20 µM | CCc1ccccc1NC(=O)c1c(C)nsc1Nc1ccncn1 [Example 2, N-(2-Ethylphenyl)-3-methyl-5-(pyrimidin-4-ylamino)-1,2-thiazole-4-carboxamide]
– | 17 µM | COc1ccc(NC(=O)c2c(C)nsc2Nc2nc3ccc(F)cc3s2)cn1 [Example 88, 5-[(6-Fluoro-1,3-benzothiazol-2-yl)amino]-N-(6-methoxypyridin-3-yl)-3-methyl-1,2-thiazole-4-carboxamide]
> 20 µM | > 20 µM | CCc1ccccc1NC(=O)c1c(C)nsc1Nc1cnc2cc(Cl)ccc2n1 [Example 86, 5-[(6-Chloroquinoxalin-2-yl)amino]-N-(2-ethylphenyl)-3-methyl-1,2-thiazole-4-carboxamide]
> 20 µM | > 20 µM | COc1ccc(NC(=O)c2c(C)nsc2Nc2cnc(C(F)(F)F)cn2)cn1 [Example 85, N-(6-methoxypyridin-3-yl)-3-methyl-5-{[5-(trifluoromethyl)pyrazin-2-yl]amino}-1,2-thiazole-4-carboxamide]
> 20 µM | > 20 µM | Cc1nsc(Nc2ccc(C(F)(F)F)nn2)c1C(=O)Nc1ccc(F)c(F)c1 [Example 83, N-(3,4-Difluorophenyl)-3-methyl-5-{[6-(trifluoromethyl)pyridazin-3-yl]amino}-1,2-thiazole-4-carboxamide]
> 20 µM | > 20 µM | CCOC(=O)c1sc(Nc2snc(C)c2C(=O)Nc2ccc(Cl)c(F)c2)nc1C [Example 95, Ethyl 2-({4-[(4-chloro-3-fluoro-phenyl)carbamoyl]-3-methyl-1,2-thiazol-5-yl}amino)-4-methyl-1,3-thiazole-5-carboxylate]
> 20 µM | > 20 µM | Cc1nsc(Nc2cnc3cc(C(F)(F)F)ccc3n2)c1C(=O)Nc1ccc(Cl)c(F)c1 [Example 68, N-(4-Chloro-3-fluorophenyl)-3-methyl-5-{[6-(trifluoromethyl)quinoxalin-2-yl]amino}-1,2-thiazole-4-carboxamide]
> 20 µM | > 20 µM | COc1ccc(NC(=O)c2c(C)nsc2Nc2nc3ccc(C)cc3s2)cn1 [Example 90, N-(6-Methoxypyridin-3-yl)-3-methyl-5-[(6-methyl-1,3-benzothiazol-2-yl)amino]-1,2-thiazole-4-carboxamide]
– | 11 µM | COc1ccc2nc(Nc3snc(C)c3C(=O)Nc3ccc(OC)nc3)sc2c1 [Example 87, 5-[(6-Methoxy-1,3-benzothiazol-2-yl)amino]-N-(6-methoxypyridin-3-yl)-3-methyl-1,2-thiazole-4-carboxamide]
> 20 µM | > 20 µM | Cc1nsc(Nc2cnc3cc(C(F)(F)F)ccc3n2)c1C(=O)Nc1ccc(Cl)c(Cl)c1 [Example 61, N-(3,4-Dichlorophenyl)-3-methyl-5-{[6-(trifluoromethyl)quinoxalin-2-yl]amino}-1,2-thiazole-4-carboxamide]
> 20 µM | > 20 µM | CCc1ccccc1NC(=O)c1c(C)nsc1Nc1cc(C#N)ccn1 [Example 4, 5-[(4-Cyanopyridin-2-yl)amino]-N-(2-ethylphenyl)-3-methyl-1,2-thiazole-4-carboxamide]
> 20 µM | > 20 µM | CCc1ccccc1NC(=O)c1c(C)nsc1Nc1ncccc1C(F)(F)F [Example 3, N-(2-Ethylphenyl)-3-methyl-5-{[3-(trifluoromethyl)pyridin-2-yl]amino}-1,2-thiazole-4-carboxamide]
> 20 µM | 0.21 µM | COc1ccc(NC(=O)c2c(C)nsc2Nc2nc3cccnc3s2)cn1 [Example 89, N-(6-Methoxypyridin-3-yl)-3-methyl-5-([1,3]thiazolo[5,4-b]pyridin-2-ylamino)-1,2-thiazole-4-carboxamide]
> 20 µM | > 20 µM | Cc1nsc(Nc2ccc(C#N)cn2)c1C(=O)Nc1ccc(Cl)c(Cl)c1 [Example 62, 5-[(5-Cyanopyridin-2-yl)amino]-N-(3,4-dichlorophenyl)-3-methyl-1,2-thiazole-4-carboxamide]

Reference: patent US9682995B2, “Amino-substituted isothiazoles” (BAYER PHARMA AKTIENGESELLSCHAFT, priority 2013, dated 2017)
